Values of other authors, collected in patent US6635803B1, “Method to improve drought tolerance in plants” (Regents of the University of California, priority 1999, dated 2003).

Assays:
K+in channel = conditions: 10 mM
[1] = tested on: K+in channels in guard cells; conditions: cytosolic second messengers

[Ba+2] [Ba^2+]
block of K+in channel currents (K+in channel): 90%
final stomatal apertures (stomata): does not affect

Nc1nc2c(ncn2[C@@H]2O[C@H](COP(=O)(O)OP(=O)(O)OP(O)(O)=S)[C@@H](O)[C@H]2O)c(=O)[nH]1 [GTPγS]
effect on K+in channels [1]: inhibit

[Ca+2] [Ca^2+]
effect on K+in channels [1]: inhibit

O=P(O)(O)O[C@@H]1[C@H](O)[C@H](O)[C@@H](OP(=O)(O)O)[C@H](OP(=O)(O)O)[C@H]1O [inositol-1,4,5-triphosphate]
effect on K+in channels [1]: inhibit
